ChEMBL document CHEMBL1201862, “PubChem BioAssay data set” (2004)
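Assay format: 96-well plates, 48-hour exposure. GI50 = concentration required for 50% inhibition of growth.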 Activity calls are given as the source filed them. Rule as the data show it: active = GI50 up to about 1.1 µM and inactive = higher.

What was measured:
Test in all cases: DTP human tumour cell line panel, 48 h
SF-539 = system: SF-539
NCI-H23 = system: NCI-H23
IGROV-1 = system: IGROV-1
U-251 = system: U-251
HOP-62 = system: HOP-62
HL-60 = system: HL-60
SNB-75 = system: SNB-75
PC-3 = system: PC-3
SF-295 = system: SF-295
HOP-92 = system: HOP-92
OVCAR-4 = system: OVCAR-4
Hs-578T = system: Hs-578T
SK-MEL-2 = system: SK-MEL-2
UO-31 = system: UO-31
MCF7 = system: MCF7
786-0 = system: 786-0
SK-OV-3 = system: SK-OV-3
T47D = system: T47D
M14 = system: M14
UACC-257 = system: UACC-257

## CCc1ccc(/C=C/C(=O)C2CN(CC)CCC2(O)/C=C/c2ccc(CC)cc2)cc1 (stereo not given)
SF-539
  GI50: 2310 nM (inactive)
NCI-H23
  GI50: 4610 nM (inactive)
IGROV-1
  GI50: 2060 nM (inactive)
U-251
  GI50: 1660 nM (inactive)
HOP-62
  GI50: 1910 nM (inactive)
HL-60
  GI50: 2770 nM (inactive)
SNB-75
  GI50: 9330 nM (inactive)
PC-3
  GI50: 3550 nM (inactive)
SF-295
  GI50: 2940 nM (inactive)
HOP-92
  GI50: 1710 nM (inactive)
OVCAR-4
  GI50: 4200 nM (inactive)
Hs-578T
  GI50: 2830 nM (inactive)
SK-MEL-2
  GI50: 7180 nM (inactive)
UO-31
  GI50: 3200 nM (inactive)
MCF7
  GI50: 2420 nM (inactive)
786-0
  GI50: 1750 nM (inactive)
SK-OV-3
  GI50: 12300 nM (inactive)
T47D
  GI50: 4150 nM (inactive)
M14
  GI50: 2610 nM (inactive)
UACC-257
  GI50: 6920 nM (inactive)

## CN1C(=O)C2(Cc3cn(C45CC67SSC(CO)(C(=O)N6C4Nc4ccccc45)N(C)C7=O)c4ccccc34)SSC1(CO)C(=O)N2C (stereo not given)
SF-539
  GI50: 11 nM (active)
NCI-H23
  GI50: < 10 nM (active)
IGROV-1
  GI50: 16.5 nM (active)
U-251
  GI50: 36.9 nM (active)
HOP-62
  GI50: 63.4 nM (active)
HL-60
  GI50: 13 nM (active)
SNB-75
  GI50: 42.3 nM (active)
PC-3
  GI50: 47.8 nM (active)
SF-295
  GI50: 309 nM (active)
HOP-92
  GI50: 53 nM (active)
OVCAR-4
  GI50: < 10 nM (active)
Hs-578T
  GI50: 28.2 nM (active)
SK-MEL-2
  GI50: 100 nM (active)
UO-31
  GI50: 33.5 nM (active)
MCF7
  GI50: < 10 nM (active)
786-0
  GI50: < 10 nM (active)
SK-OV-3
  GI50: 262 nM (active)
T47D
  GI50: < 10 nM (active)
M14
  GI50: < 10 nM (active)
UACC-257
  GI50: 18.8 nM (active)

## COc1ccc2cc(CN3CCC(C4CCNCC4)CC3)ccc2c1
SF-539
  GI50: 1710 nM (inactive)
NCI-H23
  GI50: 12000 nM (inactive)
IGROV-1
  GI50: 3700 nM (inactive)
U-251
  GI50: 1910 nM (inactive)
HOP-62
  GI50: 2670 nM (inactive)
HL-60
  GI50: 1490 nM (inactive)
SNB-75
  GI50: 1910 nM (inactive)
PC-3
  GI50: 7800 nM (inactive)
SF-295
  GI50: 1890 nM (inactive)
HOP-92
  GI50: 1790 nM (inactive)
OVCAR-4
  GI50: 8970 nM (inactive)
Hs-578T
  GI50: 2930 nM (inactive)
SK-MEL-2
  GI50: 1910 nM (inactive)
UO-31
  GI50: 2450 nM (inactive)
MCF7
  GI50: 2110 nM (inactive)
786-0
  GI50: 1670 nM (inactive)
SK-OV-3
  GI50: 10000 nM (inactive)
T47D
  GI50: 2330 nM (inactive)
M14
  GI50: 2060 nM (inactive)
UACC-257
  GI50: 1870 nM (inactive)
